Laboratory results: patent publication KR20110128542A, “Egcg를 유효성분으로 함유하는 쇼그렌 증후군, 베체트 증후군, 강직성척추염 또는 루프스의 예방 또는 치료용 조성물” (가톨릭대학교 산학협력단, priority 2010, dated 2011)
Entries after “also recorded” stand apart in the source; their conditions may differ.

How the values were obtained:
Th17 cells (Th17 세포) = assay: Th17 cells in spleen of lupus syndrome mice, immunostaining (CD4, IL-17) and confocal microscopy; type: in vivo, mouse; conditions: EGCG 10uM, intraperitoneal, 10 injections, confocal microscopy, Fig. 3
IL-17 mRNA = assay: RT-PCR of IL-17 mRNA in mouse splenocytes under Th17 differentiation conditions; type: cell-based; conditions: EGCG 0, 1, 10, 50 ng/ml, Fig. 2a
Treg cells (Treg 세포) [1] = assay: Treg cells in spleen of lupus syndrome mice, immunostaining (CD4, CD25, Foxp3) and confocal microscopy; type: in vivo, mouse; conditions: EGCG 10uM, intraperitoneal, 10 injections, Fig. 3
Foxp3 mRNA = assay: RT-PCR of Foxp3 mRNA in mouse splenocytes under Th17 differentiation conditions (Treg activation); type: cell-based; conditions: EGCG 0, 1, 10, 50 ng/ml, Fig. 2b
[2] = tested on: IL-17 produced from Th17 cells (Th17세포); assay: IL-17 production by mouse splenocytes under Th17 differentiation conditions (ELISA of culture medium, 3 days); type: cell-based; conditions: Th17 conditions (anti-CD3, anti-CD28, anti-IFNr, anti-IL-4, TGF beta), EGCG 0, 1, 10, 50 uM, Fig. 1
Treg cells (Treg 세포) [3] = assay: Treg population in splenocytes of lupus syndrome mice under Treg differentiation conditions, FACS (CD4, CD25, Foxp3); type: cell-based; conditions: lupus mouse splenocytes, anti-CD3 2 ug/ml + TGF beta 5ng/ml, EGCG 10ng/ml, 72 h

O=C(O[C@@H]1Cc2c(O)cc(O)cc2O[C@@H]1c1cc(O)c(O)c(O)c1)c1cc(O)c(O)c(O)c1 [EGCG, (-)-epigallocatechin gallate]
IL-17 expression (degree of Th17 cell differentiation), compared with control (Th17 cells (Th17 세포)): EGCG를 처리하지 않은 대조군이 처리한 군에 비해 녹색의 IL-17이 더 많이 발현 | IL-17 expression (mRNA) (IL-17 mRNA): 농도 의존적으로 점점 감소 | Treg cell activation in spleen (Treg cells (Treg 세포) [1]; CD4/CD25 co-expression): 비장에서 Treg 세포가 활성화 되었음 | Foxp3 expression in nucleus, compared with control (Treg cells (Treg 세포) [1]; spleen, confocal microscopy): 대조군에 비해 많이 발현 | Foxp3 expression (mRNA) (Foxp3 mRNA): EGCG를 처리하지 않은 군에 비해 현저하게 증가; also recorded: 농도 의존적으로 점점 증가 | amount of IL-17 cytokine produced [2]: EGCG를 처리하지 않은 군에 비해 현저하게 감소; also recorded: EGCG 농도 의존적으로 IL-17의 생성이 감소 | fold induction at 0.01 µg/mL (Treg cells (Treg 세포) [3]; Splenocyte, printed 'about 10-fold or more', read-out: increase of Treg cells compared with untreated group): ≥ 10 | Foxp3 expression (Treg cells (Treg 세포) [3]; untreated control 2.69, Fig. 4): 21.57
